Measured values taken from ChEMBL document CHEMBL2429839, “Synthesis and characterization of 2-(4-((1-alkyl or aryl-1H-1,2,3-triazol-4-yl)methoxy)phenyl)naphtho[1,2-d]oxazoles for protein tyrosine phosphatase 1B inhibitory activity” (Med Chem Res, 2013).

Legend:
[1] = molecular target: Tyrosine-protein phosphatase non-receptor type 1 (Rattus norvegicus) (UniProt P20417); test: (§1) Inhibition of PTP1B in rat liver homogenates using p-nitro phenyl phosphate as substrate at 10 uM preincubated for 30 mins followed by substrate addition measured after 10 mins relative to control; type: tissue-based
HEK293 = test: Cytotoxicity against HEK293 cells after 24 hrs by MTT assay; type: cell-based; settings: Homo sapiens, HEK293, 24 h
[2] = molecular target: T1, Tyrosine-protein phosphatase non-receptor type 1 (Rattus norvegicus) (UniProt P20417); test: as §1; type: tissue-based; remark: listed apart in the source
T1 sequence (whole entry): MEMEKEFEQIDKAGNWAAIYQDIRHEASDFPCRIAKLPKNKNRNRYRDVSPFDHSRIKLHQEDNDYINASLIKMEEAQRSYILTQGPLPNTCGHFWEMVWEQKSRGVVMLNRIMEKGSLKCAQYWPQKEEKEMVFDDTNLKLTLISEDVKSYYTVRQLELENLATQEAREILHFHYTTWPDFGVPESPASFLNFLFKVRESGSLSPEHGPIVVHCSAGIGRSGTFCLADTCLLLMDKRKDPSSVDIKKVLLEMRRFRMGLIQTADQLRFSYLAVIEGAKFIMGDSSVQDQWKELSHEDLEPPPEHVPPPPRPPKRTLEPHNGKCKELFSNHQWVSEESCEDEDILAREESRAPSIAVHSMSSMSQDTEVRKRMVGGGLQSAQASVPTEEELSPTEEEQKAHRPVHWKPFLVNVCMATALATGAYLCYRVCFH

[3] = molecular target: T1, Tyrosine-protein phosphatase non-receptor type 1 (Rattus norvegicus); test: (§2) Inhibition of PTP1B in rat liver homogenates using p-nitro phenyl phosphate as substrate preincubated for 30 mins followed by substrate addition measured after 10 mins; type: tissue-based
[4] = molecular target: T2, Tyrosine-protein phosphatase non-receptor type 1 (Rattus norvegicus, UniProt P20417); test: as §2; type: tissue-based
T2 sequence (P20417 whole entry): T1 sequence (whole entry)

A549 = test: Cytotoxicity against human A549 cells after 24 hrs by MTT assay; type: cell-based; settings: A549, 24 h
Rattus norvegicus [5] = test: Antidiabetic activity in Sprague-Dawley albino rat assessed as inhibition of blood glucose level at 50 mg/kg, ip administered 10 mins prior to oral glucose challenge measured after 10 mins by glucometer relative to control; type: functional
Rattus norvegicus [6] = test: Antidiabetic activity in Sprague-Dawley albino rat assessed as inhibition of blood glucose level at 300 mg/kg, ip administered 10 mins prior to oral glucose challenge measured after 10 mins by glucometer relative to control; type: functional

Row | Molecule | inhibition [1] [%] | IC50 (HEK293) [µM] | inhibition [2] [%] | inhibition [3] | IC50 [4] [µM] | IC50 (A549) [µM] | inhibition in vivo at 50 mg/kg (Rattus norvegicus [5]) [%] | inhibition in vivo at 300 mg/kg (Rattus norvegicus [6]) [%]
1 | SODIUM ORTHOVANAD | 60.7 |  |  |  |  |  |  | 
2 | FC(F)(F)c1ccc(-n2cc(COc3ccc(-c4nc5c(ccc6ccccc65)o4)cc3)nn2)cc1 |  | > 1000 | 68.3 | Dose-dependent effect | 8.61 | > 1000 | 78.6 | 
3 | Cc1ccc(-n2cc(COc3ccc(-c4nc5c(ccc6ccccc65)o4)cc3)nn2)cc1 |  | > 1000 | 41.6 | Dose-dependent effect | 20.4 | > 1000 | 62.6 | 
4 | CN(C)C(=N)NC(=N)N [METFORMIN] |  |  |  |  |  |  |  | 57.1
5 | COc1cccc2c1C(=O)c1c(O)c3c(c(O)c1C2=O)C[C@@](O)(C(=O)CO)C[C@@H]3O[C@H]1C[C@H](N)[C@H](O)[C@H](C)O1 [DOXORUBICIN] |  | 1.01 |  |  |  | 3.98 |  | 
